Laboratory results as given in US20240246942A1, “KINASE INHIBITORS FOR THE TREATMENT OF NEURODEGENERATIVE DISEASES” (priority 2020, published 2024).

Legend:
Assay in all cases: biochemical
[1] = target: T1, panel of 374 wild-type kinases (Homo sapiens, UniProt O00506); conditions: read-out: % Enzyme Activity (relative to DMSO controls), kinase STK25/YSK1
T1 construct: purchased Reaction Biology Corporation

[2] = target: T2, panel of 374 wild-type kinases (Homo sapiens, UniProt Q15569); conditions: read-out: % Enzyme Activity (relative to DMSO controls), kinase TESK1
T2 construct: purchased Reaction Biology Corporation
T2 sequence (Q15569 whole entry): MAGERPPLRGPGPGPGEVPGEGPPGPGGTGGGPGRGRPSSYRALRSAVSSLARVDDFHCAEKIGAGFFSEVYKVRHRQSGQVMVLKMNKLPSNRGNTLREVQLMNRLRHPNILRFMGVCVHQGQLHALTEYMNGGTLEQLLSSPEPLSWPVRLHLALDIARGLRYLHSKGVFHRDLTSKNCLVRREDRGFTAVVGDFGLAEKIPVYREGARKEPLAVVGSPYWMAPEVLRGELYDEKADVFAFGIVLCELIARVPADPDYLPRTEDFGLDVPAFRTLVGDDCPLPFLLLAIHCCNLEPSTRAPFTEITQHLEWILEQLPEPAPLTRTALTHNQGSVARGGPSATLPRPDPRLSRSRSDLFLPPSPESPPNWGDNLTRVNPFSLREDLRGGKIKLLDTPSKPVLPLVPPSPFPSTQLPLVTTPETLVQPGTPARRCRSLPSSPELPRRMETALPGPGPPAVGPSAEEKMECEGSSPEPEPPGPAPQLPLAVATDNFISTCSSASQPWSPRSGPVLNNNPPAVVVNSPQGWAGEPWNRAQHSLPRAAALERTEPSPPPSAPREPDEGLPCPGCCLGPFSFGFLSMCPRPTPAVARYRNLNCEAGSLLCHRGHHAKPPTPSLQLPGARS

[3] = target: T3, panel of 374 wild-type kinases (Homo sapiens, UniProt Q8TD19); conditions: read-out: % Enzyme Activity (relative to DMSO controls), NEK9
T3 construct: purchased Reaction Biology Corporation
T3 sequence (Q8TD19 1-979): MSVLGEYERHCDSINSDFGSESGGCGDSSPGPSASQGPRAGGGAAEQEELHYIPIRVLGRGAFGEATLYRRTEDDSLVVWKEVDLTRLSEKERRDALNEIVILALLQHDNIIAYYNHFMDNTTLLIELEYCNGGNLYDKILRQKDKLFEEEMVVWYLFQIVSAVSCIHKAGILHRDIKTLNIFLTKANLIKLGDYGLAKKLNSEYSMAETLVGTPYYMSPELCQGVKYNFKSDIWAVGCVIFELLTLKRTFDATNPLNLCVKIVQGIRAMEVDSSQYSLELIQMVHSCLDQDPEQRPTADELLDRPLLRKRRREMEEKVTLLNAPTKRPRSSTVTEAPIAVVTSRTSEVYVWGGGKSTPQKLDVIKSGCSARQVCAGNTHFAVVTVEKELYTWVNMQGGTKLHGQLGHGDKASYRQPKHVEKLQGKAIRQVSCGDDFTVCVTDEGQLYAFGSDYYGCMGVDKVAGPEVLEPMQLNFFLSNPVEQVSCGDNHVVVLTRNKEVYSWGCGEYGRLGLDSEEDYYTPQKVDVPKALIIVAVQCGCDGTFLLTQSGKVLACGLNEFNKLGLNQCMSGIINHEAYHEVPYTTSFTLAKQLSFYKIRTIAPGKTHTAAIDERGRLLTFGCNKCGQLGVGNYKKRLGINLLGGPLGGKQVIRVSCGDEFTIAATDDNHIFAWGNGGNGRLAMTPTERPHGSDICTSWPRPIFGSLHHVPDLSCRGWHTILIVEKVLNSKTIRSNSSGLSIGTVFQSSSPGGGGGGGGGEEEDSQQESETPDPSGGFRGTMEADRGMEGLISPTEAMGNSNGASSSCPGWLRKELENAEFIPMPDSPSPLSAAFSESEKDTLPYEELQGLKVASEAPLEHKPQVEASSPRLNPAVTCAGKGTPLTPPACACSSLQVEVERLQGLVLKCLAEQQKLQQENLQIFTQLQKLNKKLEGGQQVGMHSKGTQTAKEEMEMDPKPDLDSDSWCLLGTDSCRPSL

[4] = target: T4, panel of 374 wild-type kinases (Homo sapiens, UniProt Q8WXR4); conditions: read-out: % Enzyme Activity (relative to DMSO controls), MYO3b
T4 construct: purchased Reaction Biology Corporation
T4 sequence (Q8WXR4 1-1341): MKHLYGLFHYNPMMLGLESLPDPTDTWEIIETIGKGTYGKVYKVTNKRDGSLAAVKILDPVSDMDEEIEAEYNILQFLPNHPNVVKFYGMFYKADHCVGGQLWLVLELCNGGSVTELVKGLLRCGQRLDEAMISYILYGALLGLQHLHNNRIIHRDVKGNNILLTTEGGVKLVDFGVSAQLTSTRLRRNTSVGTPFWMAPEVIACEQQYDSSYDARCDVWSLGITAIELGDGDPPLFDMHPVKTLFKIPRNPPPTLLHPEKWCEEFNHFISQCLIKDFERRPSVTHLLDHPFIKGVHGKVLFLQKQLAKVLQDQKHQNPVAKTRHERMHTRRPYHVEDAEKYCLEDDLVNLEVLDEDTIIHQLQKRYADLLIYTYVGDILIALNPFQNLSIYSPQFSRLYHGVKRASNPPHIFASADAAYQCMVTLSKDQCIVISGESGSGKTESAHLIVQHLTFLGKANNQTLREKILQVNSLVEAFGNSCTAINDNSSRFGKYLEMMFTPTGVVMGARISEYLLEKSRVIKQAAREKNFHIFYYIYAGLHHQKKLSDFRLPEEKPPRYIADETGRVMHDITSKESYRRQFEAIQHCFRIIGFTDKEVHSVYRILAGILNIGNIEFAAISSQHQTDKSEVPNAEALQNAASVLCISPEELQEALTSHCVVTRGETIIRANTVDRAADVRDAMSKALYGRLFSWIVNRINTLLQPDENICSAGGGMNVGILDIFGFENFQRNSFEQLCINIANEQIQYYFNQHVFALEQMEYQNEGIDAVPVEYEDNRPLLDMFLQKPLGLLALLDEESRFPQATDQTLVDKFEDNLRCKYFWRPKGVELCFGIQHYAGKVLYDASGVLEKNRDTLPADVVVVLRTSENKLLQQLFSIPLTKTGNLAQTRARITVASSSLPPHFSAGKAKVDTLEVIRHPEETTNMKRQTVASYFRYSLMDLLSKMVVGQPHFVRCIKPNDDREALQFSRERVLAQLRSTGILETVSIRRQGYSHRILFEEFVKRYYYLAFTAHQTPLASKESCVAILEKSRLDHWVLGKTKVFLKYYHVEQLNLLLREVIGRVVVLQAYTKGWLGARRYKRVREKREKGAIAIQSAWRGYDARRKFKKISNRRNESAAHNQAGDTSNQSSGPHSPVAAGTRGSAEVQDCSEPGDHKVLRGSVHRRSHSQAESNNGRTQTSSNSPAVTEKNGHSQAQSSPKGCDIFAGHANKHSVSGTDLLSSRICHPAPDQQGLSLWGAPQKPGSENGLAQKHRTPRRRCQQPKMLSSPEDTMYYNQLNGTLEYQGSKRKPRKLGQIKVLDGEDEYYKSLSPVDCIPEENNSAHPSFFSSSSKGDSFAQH

[5] = target: T5, panel of 374 wild-type kinases (Homo sapiens, UniProt Q92918); conditions: read-out: % Enzyme Activity (relative to DMSO controls), HPK1/MAP4K1
T5 construct: purchased Reaction Biology Corporation
T5 sequence (Q92918 whole entry): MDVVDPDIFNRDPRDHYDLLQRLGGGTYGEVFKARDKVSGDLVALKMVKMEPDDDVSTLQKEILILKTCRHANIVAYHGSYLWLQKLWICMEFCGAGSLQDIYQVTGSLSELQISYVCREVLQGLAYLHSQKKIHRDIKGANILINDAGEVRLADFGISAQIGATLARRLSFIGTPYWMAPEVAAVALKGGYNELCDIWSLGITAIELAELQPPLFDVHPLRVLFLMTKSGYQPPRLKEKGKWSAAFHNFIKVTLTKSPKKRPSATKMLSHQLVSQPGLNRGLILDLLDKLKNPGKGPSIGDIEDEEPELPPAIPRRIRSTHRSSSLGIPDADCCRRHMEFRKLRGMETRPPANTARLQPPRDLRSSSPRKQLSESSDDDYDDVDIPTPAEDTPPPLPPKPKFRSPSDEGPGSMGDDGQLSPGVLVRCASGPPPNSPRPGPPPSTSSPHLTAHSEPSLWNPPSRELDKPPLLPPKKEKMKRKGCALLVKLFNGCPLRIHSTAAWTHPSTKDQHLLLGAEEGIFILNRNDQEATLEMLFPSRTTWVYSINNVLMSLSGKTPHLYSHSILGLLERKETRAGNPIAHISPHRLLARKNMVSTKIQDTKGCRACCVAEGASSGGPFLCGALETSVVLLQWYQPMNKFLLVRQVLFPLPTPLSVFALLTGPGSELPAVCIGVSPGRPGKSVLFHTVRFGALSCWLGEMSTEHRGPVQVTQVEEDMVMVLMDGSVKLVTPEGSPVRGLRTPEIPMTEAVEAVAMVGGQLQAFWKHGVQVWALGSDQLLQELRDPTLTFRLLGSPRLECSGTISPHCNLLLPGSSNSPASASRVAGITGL

[6] = target: T6, panel of 374 wild-type kinases (Homo sapiens, UniProt Q96GD4); conditions: read-out: % Enzyme Activity (relative to DMSO controls), Aurora B
T6 construct: purchased Reaction Biology Corporation
T6 sequence (Q96GD4 whole entry): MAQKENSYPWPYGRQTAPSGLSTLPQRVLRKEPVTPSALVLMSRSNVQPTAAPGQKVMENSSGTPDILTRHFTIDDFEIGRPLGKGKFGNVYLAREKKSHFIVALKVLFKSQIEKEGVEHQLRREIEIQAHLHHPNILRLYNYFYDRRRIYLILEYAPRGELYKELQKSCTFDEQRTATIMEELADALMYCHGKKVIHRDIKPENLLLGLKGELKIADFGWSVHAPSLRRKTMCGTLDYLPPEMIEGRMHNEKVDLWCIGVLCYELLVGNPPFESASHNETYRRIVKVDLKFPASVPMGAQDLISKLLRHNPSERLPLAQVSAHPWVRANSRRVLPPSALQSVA

[7] = target: T7, panel of 374 wild-type kinases (Homo sapiens, UniProt Q9P289); conditions: read-out: % Enzyme Activity (relative to DMSO controls), MST4
T7 construct: purchased Reaction Biology Corporation
T7 sequence (Q9P289 whole entry): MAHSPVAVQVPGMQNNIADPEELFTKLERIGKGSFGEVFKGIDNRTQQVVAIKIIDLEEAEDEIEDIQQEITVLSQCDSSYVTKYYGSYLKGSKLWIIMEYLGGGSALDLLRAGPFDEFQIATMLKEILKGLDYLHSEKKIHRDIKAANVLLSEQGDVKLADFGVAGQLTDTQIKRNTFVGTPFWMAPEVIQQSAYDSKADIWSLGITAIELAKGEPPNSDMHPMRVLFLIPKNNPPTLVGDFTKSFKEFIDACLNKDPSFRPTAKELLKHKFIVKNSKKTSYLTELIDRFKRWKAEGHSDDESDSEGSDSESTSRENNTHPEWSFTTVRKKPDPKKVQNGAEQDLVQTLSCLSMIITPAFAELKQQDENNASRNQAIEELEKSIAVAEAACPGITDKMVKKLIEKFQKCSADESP

T1 sequence (O00506 whole entry): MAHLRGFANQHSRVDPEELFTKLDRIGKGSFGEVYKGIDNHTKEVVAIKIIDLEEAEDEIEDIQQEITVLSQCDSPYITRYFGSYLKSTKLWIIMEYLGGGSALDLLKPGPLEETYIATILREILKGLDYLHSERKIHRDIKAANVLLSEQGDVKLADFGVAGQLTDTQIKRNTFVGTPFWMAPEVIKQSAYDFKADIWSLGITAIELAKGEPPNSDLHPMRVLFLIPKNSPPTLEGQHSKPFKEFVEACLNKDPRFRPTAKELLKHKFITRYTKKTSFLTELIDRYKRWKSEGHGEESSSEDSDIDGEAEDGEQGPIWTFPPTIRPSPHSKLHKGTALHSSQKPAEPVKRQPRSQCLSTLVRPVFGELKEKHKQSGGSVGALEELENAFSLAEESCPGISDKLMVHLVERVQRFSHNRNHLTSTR

SMILES	remaining activity at 10 µM ([1]; 10 uM)	remaining activity at 10 µM ([2]; 10 uM)	remaining activity at 10 µM ([3]; 10 uM)	remaining activity at 10 µM ([4]; 10 uM)	remaining activity at 10 µM ([5]; 10 uM)	remaining activity at 10 µM ([6]; 10 uM)	remaining activity at 10 µM ([7]; 10 uM)	remaining activity at 5 µM [1]	remaining activity at 5 µM [2]	remaining activity at 5 µM [3]	remaining activity at 5 µM [4]	remaining activity at 5 µM [5]	remaining activity at 5 µM [6]	remaining activity at 5 µM [7]
Cc1sc(C(=O)NC2COC2)cc1-n1cc(NC(=O)Nc2c(F)cccc2Cl)cn1 [Compound 27, 4-(4-(3-(2-chloro-6-fluorophenyl)ureido)-1H-pyrazol-1-yl)-5-methyl-N-(oxetan-3-yl)thiophene-2-carboxamide]	70.5%	88.7%	111%	78.7%	99.2%	96.4%	72.4%	–	–	–	–	–	–	–
O=C(Nc1cnn(-c2csc(C(=O)NC3COC3)c2)c1)Nc1c(F)cccc1Cl [Compound 25, 4-(4-(3-(2-chloro-6-fluorophenyl)ureido)-1H-pyrazol-1-yl)-N-(oxetan-3-yl)thiophene-2-carboxamide]	–	–	–	–	–	–	–	96.1%	91%	88.4%	101%	92.7%	69.8%	71.4%
O=C(Nc1cnn(-c2csc(C(=O)NC3COC3)c2)c1)Nc1ccccc1Cl [Compound 17, 4-(4-(3-(2-chlorophenyl)ureido)-1H-pyrazol-1-yl)-N-(oxetan-3-yl)thiophene-2-carboxamide]	–	–	–	–	–	–	–	106%	101%	104%	128%	132%	93%	98.3%
